From ChEMBL document CHEMBL5046251, “Discovery of a Series of Pyrimidine Carboxamides as Inhibitors of Vanin-1” (J Med Chem, 2022)
Calls of active or inactive are those of the source. No cut-off for these calls is given here.

How the values were obtained:
[1] = target: T1, Biotinidase (Homo sapiens, UniProt P43251); test: Inhibition of N-terminal FLAG/His6-tagged human biotinidase expressed in COS cells using biotinyl-7-amino-4-trifluoromethylcoumarin as substrate preincubated for 10 mins followed by substrate addition and measured after 90 mins; assay type: cell-based
T1 sequence (P43251 whole entry): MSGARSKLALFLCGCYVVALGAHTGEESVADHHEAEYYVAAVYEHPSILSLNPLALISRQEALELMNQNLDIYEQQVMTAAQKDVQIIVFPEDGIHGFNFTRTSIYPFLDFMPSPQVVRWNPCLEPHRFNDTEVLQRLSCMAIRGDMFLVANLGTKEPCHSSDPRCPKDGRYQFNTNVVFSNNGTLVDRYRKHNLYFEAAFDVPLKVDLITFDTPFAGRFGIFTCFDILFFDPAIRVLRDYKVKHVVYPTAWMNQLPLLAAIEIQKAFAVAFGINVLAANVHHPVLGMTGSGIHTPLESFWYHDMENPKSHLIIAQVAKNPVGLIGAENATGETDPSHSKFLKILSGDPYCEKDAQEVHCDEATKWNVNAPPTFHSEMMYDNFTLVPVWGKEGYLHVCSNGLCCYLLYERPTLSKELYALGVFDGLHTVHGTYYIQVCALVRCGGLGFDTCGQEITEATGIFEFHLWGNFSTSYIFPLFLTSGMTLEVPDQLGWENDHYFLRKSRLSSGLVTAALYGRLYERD

[2] = Intrinsic clearance in human hepatocytes assessed per million cells; assay type: ADME, cell-based, Hepatocyte
[3] = AUC in mouse at 10 mg/kg, sc measured upto 24 hrs by LC-MS/MS analysis; assay type: ADME, organism-based; parameters: route subcutaneous, dose 10 mg/kg, time <=24; settings: in vivo
[4] = Unbound drug concentration in serum of DSS-induced BALB/c mouse colitis model at 50 mg/kg administered for 10 days; assay type: ADME, organism-based; settings: in vivo, 240 h, time 10 day
[5] = Lipophilicity, log D of the compound in Octanol/buffer by shake-flask method
[6] = Oral bioavailability in rat at 10 mg/kg measured upto 24 hrs by LC-MS/MS analysis; assay type: ADME, organism-based; settings: in vivo
[7] = Apparent permeability across apical to basolateral side in RRCK cells; settings: dog, MDCK
[8] = Intrinsic clearance in human hepatocytes assessed per million cells by relay assay method; assay type: ADME, cell-based, Hepatocyte
[9] = Half life in rat at 1 mg/kg, iv measured upto 24 hrs by LC-MS/MS analysis; assay type: ADME, organism-based; settings: in vivo
[10] = target: T2, Pantetheinase (Mus musculus, UniProt Q9Z0K8); test: Inhibition of mouse vanin-1
T2 sequence (Q9Z0K8 whole entry): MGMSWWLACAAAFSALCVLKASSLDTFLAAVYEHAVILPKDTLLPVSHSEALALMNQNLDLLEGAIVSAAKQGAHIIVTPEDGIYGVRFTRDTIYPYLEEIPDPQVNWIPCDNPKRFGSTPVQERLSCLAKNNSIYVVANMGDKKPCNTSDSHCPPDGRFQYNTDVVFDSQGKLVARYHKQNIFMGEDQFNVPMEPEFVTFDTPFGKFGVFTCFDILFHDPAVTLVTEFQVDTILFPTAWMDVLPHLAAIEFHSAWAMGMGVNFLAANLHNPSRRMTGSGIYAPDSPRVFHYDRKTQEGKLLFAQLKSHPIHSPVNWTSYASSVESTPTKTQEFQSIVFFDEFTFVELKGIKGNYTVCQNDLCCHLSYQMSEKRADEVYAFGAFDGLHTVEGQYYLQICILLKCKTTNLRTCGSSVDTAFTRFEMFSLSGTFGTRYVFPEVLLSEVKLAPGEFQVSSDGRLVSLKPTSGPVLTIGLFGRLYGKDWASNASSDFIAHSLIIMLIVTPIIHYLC

[11] = AUC in rat at 1 mg/kg, iv measured upto 24 hrs by LC-MS/MS analysis; assay type: ADME, organism-based; parameters: route intravenous, dose 1 mg/kg, time <=24; settings: in vivo
[12] = Clearance in rat at 1 mg/kg, iv measured upto 24 hrs by LC-MS/MS analysis; assay type: ADME, organism-based; settings: in vivo
[13] = AUC in rat at 10 mg/kg, po measured upto 24 hrs by LC-MS/MS analysis; assay type: ADME, organism-based; parameters: route oral, dose 10 mg/kg, time <=24; settings: in vivo
[14] = Renal clearance in rat at 1 mg/kg, iv assessed glomerular filtration rate; assay type: ADME, organism-based; settings: in vivo
[15] = Intrinsic clearance in human liver microsomes; assay type: ADME, Microsome
[16] = Intrinsic clearance in rat hepatocytes assessed per million cells; assay type: ADME, cell-based, Hepatocyte
[17] = test system: Mus musculus; test: Anti-colitis activity against DSS-induced BALB/c mouse model assessed as reduction in disease activity index at 50 mg/kg, po, qd administered for 10 days; assay type: functional, organism-based; settings: time 10.0 day
[18] = Volume of distribution in rat at 1 mg/kg, iv measured upto 24 hrs by LC-MS/MS analysis; assay type: ADME, organism-based; settings: in vivo
[19] = test system: Mus musculus; test: Anti-colitis activity against DSS-induced BALB/c mouse model assessed as increase in body weight at 50 mg/kg, po, qd administered for 10 days; assay type: functional, organism-based; settings: time 10.0 day
[20] = Volume of distribution at steady state in rat; assay type: ADME; settings: in vivo, read-out: Vdss
[21] = target: T3, Pantetheinase (Homo sapiens) (UniProt O95497); test: Binding affinity to recombinant N-terminal FLAG/His6-tagged human vanin-1 expressed in CHO cells assessed as binding constant (Koff) by surface plasmon resonance analysis
T3 sequence (whole entry): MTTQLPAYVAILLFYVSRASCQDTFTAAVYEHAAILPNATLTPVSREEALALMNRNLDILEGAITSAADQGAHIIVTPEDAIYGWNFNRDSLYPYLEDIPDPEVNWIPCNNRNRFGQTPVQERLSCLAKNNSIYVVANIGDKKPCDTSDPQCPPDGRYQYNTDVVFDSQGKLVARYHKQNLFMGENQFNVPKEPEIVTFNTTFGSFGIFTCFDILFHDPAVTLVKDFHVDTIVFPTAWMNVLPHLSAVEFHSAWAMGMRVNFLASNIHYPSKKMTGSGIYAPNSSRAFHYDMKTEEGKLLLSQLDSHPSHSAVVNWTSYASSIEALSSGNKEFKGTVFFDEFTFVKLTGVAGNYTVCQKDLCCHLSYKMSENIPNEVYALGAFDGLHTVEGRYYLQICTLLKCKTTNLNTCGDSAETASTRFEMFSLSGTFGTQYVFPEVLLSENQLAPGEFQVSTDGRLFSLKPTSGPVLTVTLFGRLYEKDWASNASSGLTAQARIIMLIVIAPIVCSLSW

[22] = target: T4, Caspase-2 (Homo sapiens, UniProt P42575); test: Inhibition of caspase-2 (unknown origin)
T4 sequence (P42575 whole entry): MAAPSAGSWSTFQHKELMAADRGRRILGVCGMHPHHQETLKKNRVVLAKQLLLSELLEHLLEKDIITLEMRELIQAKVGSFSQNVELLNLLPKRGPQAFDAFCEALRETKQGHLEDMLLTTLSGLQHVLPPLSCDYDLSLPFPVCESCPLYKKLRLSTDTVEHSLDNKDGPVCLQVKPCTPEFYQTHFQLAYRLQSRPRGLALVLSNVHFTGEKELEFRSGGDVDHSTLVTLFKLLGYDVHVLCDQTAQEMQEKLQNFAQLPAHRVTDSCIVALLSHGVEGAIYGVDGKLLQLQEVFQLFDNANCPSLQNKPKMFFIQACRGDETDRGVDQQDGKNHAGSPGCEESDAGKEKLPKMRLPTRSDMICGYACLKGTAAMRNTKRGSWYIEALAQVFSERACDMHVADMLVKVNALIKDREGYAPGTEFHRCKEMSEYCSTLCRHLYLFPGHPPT

[23] = Half life in rat; assay type: ADME; settings: in vivo
[24] = Efflux ratio in human MDR cells; assay type: ADME, cell-based
[25] = Oral bioavailability in rat; assay type: ADME, organism-based; settings: in vivo
[26] = target: T3, Pantetheinase (Homo sapiens); test: Binding affinity to recombinant N-terminal FLAG/His6-tagged human vanin-1 expressed in CHO cells assessed as binding constant (Kon) by surface plasmon resonance analysis
[27] = Plasma protein binding in human assessed as unbound fraction; assay type: ADME, cell-free
[28] = target: T5, Pantetheinase (Homo sapiens, UniProt O95497); test: Binding affinity to recombinant N-terminal FLAG/His6-tagged human vanin-1 expressed in CHO cells assessed as dissociation constant by surface plasmon resonance analysis
T5 sequence (O95497 whole entry): T3 sequence (whole entry)

[29] = Clearance in rat; assay type: ADME; settings: in vivo
[30] = target: T6, Caspase-1 (Homo sapiens, UniProt P29466); test: Inhibition of caspase-1 (unknown origin)
T6 sequence (P29466 whole entry): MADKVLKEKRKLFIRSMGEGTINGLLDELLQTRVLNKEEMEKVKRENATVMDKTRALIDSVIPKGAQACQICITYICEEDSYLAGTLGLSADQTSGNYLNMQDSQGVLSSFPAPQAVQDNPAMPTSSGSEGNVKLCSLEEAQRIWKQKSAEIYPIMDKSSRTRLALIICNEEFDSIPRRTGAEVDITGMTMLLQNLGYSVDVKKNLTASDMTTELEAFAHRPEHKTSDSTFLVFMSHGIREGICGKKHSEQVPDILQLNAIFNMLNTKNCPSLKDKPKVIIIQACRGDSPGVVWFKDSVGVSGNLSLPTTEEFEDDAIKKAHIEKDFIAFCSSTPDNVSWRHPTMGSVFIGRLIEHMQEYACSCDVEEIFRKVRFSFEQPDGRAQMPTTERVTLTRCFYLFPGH

[31] = target: T5, Pantetheinase; test: Inhibition of recombinant N-terminal FLAG/His6-tagged human vanin-1 expressed in CHO cells at 10 uM by 1H NMR analysis; assay type: cell-based
[32] = target: T7, Caspase-3 (Homo sapiens, UniProt P42574); test: Inhibition of caspase-3 (unknown origin)
T7 sequence (P42574 whole entry): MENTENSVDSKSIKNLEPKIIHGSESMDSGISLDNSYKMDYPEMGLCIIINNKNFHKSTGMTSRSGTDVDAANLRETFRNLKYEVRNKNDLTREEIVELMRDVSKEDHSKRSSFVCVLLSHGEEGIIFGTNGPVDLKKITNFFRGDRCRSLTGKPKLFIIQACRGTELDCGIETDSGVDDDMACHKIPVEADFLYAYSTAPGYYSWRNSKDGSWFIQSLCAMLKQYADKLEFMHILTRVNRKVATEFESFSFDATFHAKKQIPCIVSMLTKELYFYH

[33] = test system: Mus musculus; test: Anti-colitis activity against DSS-induced BALB/c mouse model assessed as increase in body weight at 50 mg/kg, sc measured on day 8 and 9; assay type: functional, organism-based; settings: time 8-9 day
[34] = Oral bioavailability in mouse; assay type: ADME, organism-based; settings: in vivo
[35] = Unbound clearance in mouse; assay type: ADME, organism-based; settings: in vivo
[36] = Half life in mouse; assay type: ADME, organism-based; settings: in vivo
[37] = Apparent intrinsic clearance in human liver microsome; assay type: ADME; settings: liver microsomes, read-out: CLH
[38] = test system: Mus musculus; test: Anti-colitis activity against DSS-induced colitis BALB/c mouse model assessed as effect on colon length at 50 mg/kg, sc measured after 14 days; assay type: functional, organism-based; settings: time 14.0 day
[39] = Plasma protein binding in mouse assessed as unbound fraction; assay type: ADME, cell-free
[40] = Volume of distribution at steady state in mouse; assay type: ADME, organism-based; settings: in vivo, read-out: Vdss
[41] = Total clearance in mouse; assay type: ADME, organism-based; settings: in vivo
[42] = test system: Mus musculus; test: Anti-colitis activity against DSS-induced BALB/c mouse model assessed as reduction in disease activity index at 50 mg/kg, sc measured on day 8 and 9; assay type: functional, organism-based; settings: time 8-9 day
[43] = target: T5, Pantetheinase; test: Inhibition of human plasma vanin-1 using pantetheine-7-amino-4-trifluoromethykournarin as substrate preincubated for 30 mins followed by substrate addition; assay type: cell-free
[44] = Apparent intrinsic clearance in mouse liver microsome; assay type: ADME; settings: liver microsomes, read-out: CLH

C[C@H](Nc1ncc(C(=O)N2CCC3(CCOCC3)C2)cn1)c1cnccn1
IC50 [1]: 2.8 µM | CLint [2]: < 3 µL/min/1e6 cells | AUC at 24 h [3]: 6.59 µg·h/mL | Ct [4]: 2852 nM | logD [5]: 0.4 | bioavailability [6]: 37% | Papp A→B [7]: 140 nm/s | CLint [8]: 0.25 µL/min/1e6 cells | half-life [9]: 48 min | IC50 [10]: 0.00056 µM | AUC at 24 h [11]: 0.616 µg·h/mL | clearance [12]: 1.8 L/h/kg | AUC at 24 h [13]: 2.25 µg·h/mL | CL [14]: 25% | Intrinsic clearance [15]: < 8 µL/min/mg | CLint [16]: 6 µL/min/1e6 cells | Activity [17]: Active | Vd [18]: 0.98 L/kg | Activity [19]: Active

O=C(c1cnc(NC2(c3cncnc3)CC2)nc1)N1CCCCC1
IC50 [1]: 18 µM | CLint [2]: 11 µL/min/1e6 cells | Vd [20]: 1.1 L/kg | K [21]: 0.52 s⁻¹ | IC50 [22]: > 10 µM | logD [5]: 0.7 | half-life [23]: 9 min | efflux ratio [24]: 3.2 | bioavailability [25]: 11% | Papp A→B [7]: 95 nm/s | K [26]: 8.1 10^7/M/s | IC50 [10]: 0.0102 µM | fraction unbound [27]: 0.00918 | Intrinsic clearance [15]: < 10 µL/min/mg | CLint [16]: 45 µL/min/1e6 cells | Kd [28]: 0.02 µM | clearance [29]: 5.28 L/h/kg | IC50 [30]: > 10 µM | IC50 [31]: 0.115 µM | IC50 [32]: > 10 µM

N#Cc1cccc(C(=O)c2cnc(NC3(c4cncnc4)CC3)nc2)c1
Activity [33]: Active | IC50 [1]: 24 µM | bioavailability [34]: 29% | CL free [35]: 2.94 L/h/kg | half-life [36]: 60 min | logD [5]: 1.2 | CLint scaled [37]: 0.84 L/h/kg | Activity [38]: Active | fraction unbound [39]: 0.0046 | Vd [40]: 1.1 L/kg | Papp A→B [7]: 270 nm/s | IC50 [10]: 0.0048 µM | clearance [41]: 1.74 L/h/kg | Activity [42]: Active | IC50 [43]: 0.012 µM | Intrinsic clearance [15]: 14 µL/min/mg | CLint scaled [44]: 2.34 L/h/kg
